Experimental data reported in patent publication US11897886B2, “Pyrazolo[4,3-d]pyrimidines as antitumor agents” (Duquesne University of the Holy Spirit, priority 2018, dated 2024).
Where two headings read alike, the source gives them in different places.

What was measured:
OVCAR-8 = assay: Compound activity in OVCAR-8 cell line; type: cell-based; conditions: for IC50: OVCAR-8, read-out: OVCAR-8 IC50 (nM) ± SD
NCI/ADR-RES = assay: Compound activity in a P-gp overexpressing cell line NCI/ADR-RES; type: cell-based; conditions: for IC50: P-gp overexpressing cell line
MCF-7 WT = MCF-7 WT cell activity; type: cell-based; conditions: Homo sapiens, MCF7
MCF-7/TAX Pgp = assay: MCF-7/TAX (Pgp) cell activity; type: cell-based; conditions: for EC50: Homo sapiens, MCF7
MIA PaCa-2 = MIA PaCa-2 cell line activity; type: cell-based; conditions: Table 2, read-out: MIA PaCa-2 (nM ± SD)
MCF-7-TUBB3 β3-tubulin = assay: MCF-7-TUBB3 (β3-tubulin) cell activity; type: cell-based
tubulin = tubulin (Bos taurus, UniProt P81947+Q6B856); assay: Inhibition of [3H]colchicine binding to tubulin
tubulin, sequence (Q6B856 whole entry): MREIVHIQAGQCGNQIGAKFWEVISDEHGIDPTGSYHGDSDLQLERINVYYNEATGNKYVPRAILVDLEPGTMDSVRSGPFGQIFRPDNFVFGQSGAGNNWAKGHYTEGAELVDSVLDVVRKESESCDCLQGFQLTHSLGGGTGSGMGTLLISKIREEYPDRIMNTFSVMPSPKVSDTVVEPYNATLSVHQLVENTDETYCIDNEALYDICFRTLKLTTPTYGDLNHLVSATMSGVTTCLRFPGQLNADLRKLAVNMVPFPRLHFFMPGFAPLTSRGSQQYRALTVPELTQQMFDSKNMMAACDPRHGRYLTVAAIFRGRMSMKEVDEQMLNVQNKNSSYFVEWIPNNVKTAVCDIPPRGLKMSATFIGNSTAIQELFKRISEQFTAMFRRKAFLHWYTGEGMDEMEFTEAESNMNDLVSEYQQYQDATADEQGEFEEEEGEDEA
tubulin, sequence (P81947 whole entry): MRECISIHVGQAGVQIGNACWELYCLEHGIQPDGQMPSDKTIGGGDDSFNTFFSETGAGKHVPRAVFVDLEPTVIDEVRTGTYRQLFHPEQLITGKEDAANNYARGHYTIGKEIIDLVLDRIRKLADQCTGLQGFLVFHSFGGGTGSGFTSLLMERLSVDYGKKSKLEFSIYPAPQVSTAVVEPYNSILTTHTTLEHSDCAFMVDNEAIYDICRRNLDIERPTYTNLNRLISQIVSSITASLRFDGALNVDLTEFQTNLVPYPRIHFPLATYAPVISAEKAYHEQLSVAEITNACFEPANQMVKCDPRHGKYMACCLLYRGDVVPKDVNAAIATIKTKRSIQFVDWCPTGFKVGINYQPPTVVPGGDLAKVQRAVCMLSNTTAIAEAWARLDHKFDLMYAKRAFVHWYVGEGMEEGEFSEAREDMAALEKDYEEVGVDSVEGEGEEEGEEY

[1] = Homo sapiens, NCI/ADR-RES, Table 1, read-out: NCl/ADR-RES IC50 (nM) ± SD
[2] = Homo sapiens, NCI/ADR-RES, Table 2, read-out: NCI/ADR-RES IC50 (nM) ± SD

| EC50 (MCF-7 WT) [nM] | IC50 (OVCAR-8; Homo sapiens, Table 1) [nM] | IC50 (NCI/ADR-RES; [1]) [nM] | IC50 (NCI/ADR-RES; [2]) [nM] | EC50 (MCF-7/TAX Pgp) [nM] | EC50 (MCF-7-TUBB3 β3-tubulin) [nM] | Compound | RESISTANCE RATIO Pgp/WT (MCF-7/TAX Pgp; MCF-7/TAX vs MCF-7 WT) | RESISTANCE RATIO β3-tubulin/WT (MCF-7-TUBB3 β3-tubulin; MCF-7-TUBB3 vs MCF-7 WT) | further results |
| --- | --- | --- | --- | --- | --- | --- | --- | --- | --- |
|  | 17 ± 2 | 8 ± 0.7 | 8 ± 0.7 |  |  | COc1ccc2c(c1)CCCN2c1nc(Cl)nc2cnn(C)c12 [Compound 6, 1-(5-chloro-1-methyl-1H-pyrazolo[4,3-d]pyrimidin-7-yl)-6-methoxy-1,2,3,4-tetrahydroquinoline] |  |  | IC50 (MIA PaCa-2; Homo sapiens): 48 ± 2.77 nM |
|  | 880 ± 40 | 730 ± 100 | 730 ± 100 |  |  | CN(c1ccc(OC(F)(F)F)cc1)c1nc(Cl)nc2cnn(C)c12 [Compound 10, 5-chloro-N,1-dimethyl-N-(4-(trifluoromethoxy)phenyl)-1H-pyrazolo[4,3-d]pyrimidin-7-amine] |  |  |  |

Second part, the compound before the results:

| Compound | EC50 (MCF-7 WT) [nM] | IC50 (OVCAR-8; Homo sapiens, Table 1) [nM] | IC50 (NCI/ADR-RES; [1]) [nM] | IC50 (NCI/ADR-RES; [2]) [nM] | EC50 (MCF-7/TAX Pgp) [nM] | EC50 (MCF-7-TUBB3 β3-tubulin) [nM] | RESISTANCE RATIO Pgp/WT (MCF-7/TAX Pgp; MCF-7/TAX vs MCF-7 WT) | RESISTANCE RATIO β3-tubulin/WT (MCF-7-TUBB3 β3-tubulin; MCF-7-TUBB3 vs MCF-7 WT) | further results |
| --- | --- | --- | --- | --- | --- | --- | --- | --- | --- |
| COc1ccc(/C=C\c2cc(OC)c(OC)c(OC)c2)cc1O [CS-A4, Combretastatin A-4, reference compound] |  |  |  |  |  |  |  |  | IC50 (OVCAR-8; Table 1): 3.5 ± 0.7 nM; IC50 (OVCAR-8; Table 2): 3.5 ± 0.7 nM; IC50 (NCI/ADR-RES; Table 1, read-out: NCl/ADR-RES IC50 (nM) ± SD): 2.3 ± 0.4 nM; IC50 (NCI/ADR-RES; Table 2, read-out: NCI/ADR-RES IC50 (nM) ± SD): 2.3 ± 0.4 nM |
| COc1ccc(N(C)c2nc(Cl)nc3cnn(C)c23)cc1 [Compound 4, 5-chloro-N-(4-methoxyphenyl)-N,1-dimethyl-1H-pyrazolo[4,3-d]pyrimidin-7-amine] | 2 ± 0.3 | 9 ± 0.7 | 5 | 5 | 15.1 ± 2 | 3.3 ± 0.4 | 3.8 | 1.1 | IC50 (MIA PaCa-2; Homo sapiens): 22.7 ± 1.13 nM |
| CSc1ccc(N(C)c2nc(Cl)nc3cnn(C)c23)cc1 [Compound 5, 5-chloro-N,1-dimethyl-N-(4-(methylthio)phenyl)-1H-pyrazolo[4,3-d]pyrimidin-7-amine] |  | 31 ± 2 | 17 ± 3 | 17 ± 3 |  |  |  |  | IC50 (MIA PaCa-2; Homo sapiens): 20.9 ± 0.651 nM |
| COc1ccc(N(C)c2nc(Cl)nc3cnn(C)c23)cc1F [Compound 6d7, 5-chloro-N-(3-fluoro-4-methoxyphenyl)-N,1-dimethyl-1H-pyrazolo[4,3-d]pyrimidin-7-amine] | 1.7 ± 0.2 |  |  | 7 ± 3 | 8.1 ± 0.2 | 2.6 ± 0.4 | 4.8 | 1.6 | IC50 (OVCAR-8; Homo sapiens, Table 2): 9 ± 1 nM |
| COc1cccc2cc(N(C)c3nc(Cl)nc4cnn(C)c34)ccc12 [Compound 7, 5-chloro-N-(5-methoxynaphthalen-2-yl)-N,1-dimethyl-1H-pyrazolo[4,3-d]pyrimidin-7-amine] | 35.2 ± 4.7 | 14 ± 3 | 11 ± 0.7 | 11 ± 0.7 | 43 ± 7.2 | 16.8 ± 1.5 | 1.2 | 0.5 |  |
| CCOc1ccc(N(C)c2nc(Cl)nc3cnn(C)c23)cc1 [Compound 8, 5-chloro-N-(4-ethoxyphenyl)-N,1-dimethyl-1H-pyrazolo[4,3-d]pyrimidin-7-amine] | 7.7 ± 0.7 | 2 ± 1 | 4 ± 1 | 4 ± 1 | 31.3 ± 3.5 | 9.7 ± 1 | 4.0 | 1.3 | fold improvement of OVCAR-8 cell line activity (OVCAR-8; over compound 4): around 4 fold |
| CC(C)Oc1ccc(N(C)c2nc(Cl)nc3cnn(C)c23)cc1 [Compound 9, 5-chloro-N-(4-isopropoxyphenyl)-N,1-dimethyl-1H-pyrazolo[4,3-d]pyrimidin-7-amine] |  | 49 ± 10 | 44 ± 8 | 44 ± 8 |  |  |  |  |  |
| COc1ccc(Nc2nc(Cl)nc3cnn(C)c23)cc1 [Compound 11, 5-chloro-N-(4-methoxyphenyl)-1-methyl-1H-pyrazolo[4,3-d]pyrimidin-7-amine] |  | > 5000 | > 5000 |  |  |  |  |  | colchicine inhibition (tubulin): did not show colchicine inhibition; activity in OVCAR-8 cell line (OVCAR-8): not active; activity in NCI/ADR-RES cell line (NCI/ADR-RES): not active |
| Nc1ccn([C@@H]2O[C@H](CO)[C@@H](O)C2(F)F)c(=O)n1 [GEM, reference compound] |  |  |  |  |  |  |  |  | IC50 (MIA PaCa-2): 297 nM |
| Nc1nc2[nH]cc(CCc3ccc(C(=O)N[C@@H](CCC(=O)O)C(=O)O)cc3)c2c(=O)[nH]1 [PMX, reference compound] |  |  |  |  |  |  |  |  | IC50 (MIA PaCa-2): 16.1 ± 1.4 nM |
| CC(=O)O[C@H]1C(=O)[C@@]2(C)[C@H]([C@H](OC(=O)c3ccccc3)[C@]3(O)C[C@H](OC(=O)[C@H](O)[C@@H](NC(=O)c4ccccc4)c4ccccc4)C(C)=C1C3(C)C)[C@]1(OC(C)=O)CO[C@@H]1C[C@@H]2O [Paclitaxel, reference compound] | 194 | 7 ± 2 | > 5000 | > 5000 | 3220 | 2070 |  |  | […] Pgp/WT (MCF-7/TAX Pgp; MCF-7/TAX vs MCF-7 WT): 16.6; […] β3-tubulin/WT (MCF-7-TUBB3 β3-tubulin; MCF-7-TUBB3 vs MCF-7 WT): 10.6 |
